# In patent publication US20240342139A1, “DEVELOPMENT AND OPTIMIZATION OF THIOCHROMENOTHIAZOLE-BASED MSUT2 INHIBITORS AS CANDIDATES FOR THE TREATMENT OF TAUOPATHY” (The United States Government As Represented By the …, priority 2023, published 2024):
# What was measured:
# [1] = target: T1, MSUT2 (Homo sapiens (Human), UniProt Q6PJT7); assay: primary tau-inclusion neuronal assay (MSUT2 inhibitor activity); type: cell-based; settings: for IC50: dose-dependent activity, primary tau-inclusion neuronal assay; for biological activity in the in vitro assay (SAR summary in words): preliminary SAR summary
# Description: A variety of analogs in which the tricycle scaffold was modified were prepared and evaluated for their MSUT2 inhibitor activity.
# The N-substitution pattern was also explored. The dose-dependent activity of these compounds was determined using a primary tau-inclusion neuronal assay and is summarized in Table 3 below.
# [2] = target: T1, MSUT2; assay: NMR Saturation Transfer Difference studies; type: binding; settings: 15 μM MSUT2 protein; down-field shift of ligand signals at 4.10 and 3.05 ppm; Kd could not be calculated
# Description: The concentration of MSUT2 protein is 15 μM. Ratio of ligand to protein is indicated to the left of individual spectra.
# [3] = target: T1, MSUT2; assay: photo-affinity labelling experiments (PAL probe BL-1138, TAMRA fluorescence SDS-PAGE); type: binding; settings: for ligand-protein binding mode (decrease in tagging density with competitor): used as competitor against PAL probe BL-1138, full MSUT2 and GST-MSUT2 construct
# Text: FIG. 7A and FIG. 7B show representative data from photo-affinity labelling experiments performed using UWK-5 (lanes 1-4) and BL-1122 (lanes 5-8) as competitors. Gel visualized by fluorescence imaging using TAMRA (excitation/emission maxima 546/579 nm).
# [4] = target: MSUT2/poly(A)RNA binding interaction (Homo sapiens (Human), UniProt Q6PJT7); assay: high-throughput AlphaScreen, dose-response in vitro; type: biochemical; settings: AlphaScreen dose-response profile in vitro
# Text: MSUT2 has been identified as a therapeutic target for the treatment of tauopathy, and MSUT2 KO has decreased the accumulation of pathological tau and reduced the formation of NFTs in tau-transgenic PS19 mice models. Screening of >100,000 compounds in an AlphaScreen and an orthogonal FP-HTS assay identified a promising thiochromenathiazole-based inhibitor of the MSUT2/poly(A)RNA binding interaction. Preliminary SAR experiments have been conducted to confirm biological activity and to identify novel biologically active compounds of interest. […] Due to challenges in functionalizing an electron-deficient tricycle scaffold, the synthesis of analogues will coincide with an effort towards the optimization of synthetic conditions.
# T1 sequence (Q6PJT7 whole entry, species assumed): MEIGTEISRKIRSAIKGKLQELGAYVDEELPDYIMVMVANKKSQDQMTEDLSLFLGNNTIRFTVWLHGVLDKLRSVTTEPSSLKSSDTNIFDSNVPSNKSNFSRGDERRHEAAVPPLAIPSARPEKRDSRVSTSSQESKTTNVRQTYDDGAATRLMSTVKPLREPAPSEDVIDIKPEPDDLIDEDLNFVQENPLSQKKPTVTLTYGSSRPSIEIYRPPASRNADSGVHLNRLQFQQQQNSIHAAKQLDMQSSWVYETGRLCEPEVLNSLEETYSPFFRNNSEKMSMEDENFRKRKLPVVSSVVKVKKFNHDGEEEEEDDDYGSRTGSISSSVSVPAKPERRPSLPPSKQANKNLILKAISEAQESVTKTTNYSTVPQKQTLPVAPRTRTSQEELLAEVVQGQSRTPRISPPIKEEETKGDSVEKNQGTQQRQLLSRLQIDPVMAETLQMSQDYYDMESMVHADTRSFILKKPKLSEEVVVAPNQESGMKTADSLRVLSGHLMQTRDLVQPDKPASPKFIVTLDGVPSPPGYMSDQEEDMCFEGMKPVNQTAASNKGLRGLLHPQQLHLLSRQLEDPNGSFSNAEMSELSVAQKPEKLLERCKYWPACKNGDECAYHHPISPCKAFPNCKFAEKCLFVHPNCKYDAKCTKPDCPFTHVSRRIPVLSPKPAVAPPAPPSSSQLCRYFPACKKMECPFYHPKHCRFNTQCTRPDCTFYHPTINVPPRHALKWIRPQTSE
# MSUT2/poly(A)RNA binding interaction, sequence (Q6PJT7 whole entry, species assumed): as above
SMILES,IC50 [1],biological activity in the in vitro assay (SAR summary in words) [1],further results
CCS(=O)(=O)c1ccc(C(=O)Nc2nc3c(s2)CSCC3)cc1,109 µM,eliminates activity,–
Nc1nc2c(s1)COc1ccccc1-2 [BL-0959],3.91 µM,tolerated,–
Nc1nc2c(s1)CCc1ccccc1-2 [BL-0960],> 100 µM,loss of biological activity,–
Nc1nc2c(s1)CCCc1ccccc1-2 [BL-0961],> 100 µM,loss of biological activity,–
CCS(=O)(=O)c1ccc(C(=O)Nc2nc3c(s2)COc2ccccc2-3)cc1 [BL-0962],> 100 µM,–,–
CCS(=O)(=O)c1ccc(C(=O)Nc2nc3c(s2)CCc2ccccc2-3)cc1 [BL-0963],45.1 µM,–,–
Nc1nc2c(s1)CSc1c(F)cccc1-2 [BL-0979],23.6 µM,–,–
Nc1nc2c(s1)CSc1ccc(F)cc1-2 [BL-0980],22.9 µM,–,–
Nc1nc2c(s1)CSc1c(F)cc(F)cc1-2 [BL-1017],60.9 µM,–,–
Nc1nc2c(s1)CSCC2 [BL-1018],> 128 µM,eliminates activity,–
O=S(=O)(Nc1nc2c(s1)CSc1ccccc1-2)c1ccccc1 [BL-1027],24.7 µM,–,–
O=S(=O)(Nc1nc2c(s1)COc1ccccc1-2)c1ccccc1 [BL-1039],34.2 µM,–,–
CC(C)(C)OC(=O)NCC(=O)Nc1nc2c(s1)CSc1ccccc1-2 [BL-1045],45.1 µM,–,–
NCC(=O)Nc1nc2c(s1)CSc1ccccc1-2 [BL-1046],23 µM,–,–
Nc1nc(-c2ccccc2)cs1 [BL-1055],> 128 µM,eliminates activity,–
CCS(=O)(=O)c1ccc(C(=O)Nc2nc(-c3ccccc3)cs2)cc1 [BL-1057],> 128 µM,eliminates activity,–
Nc1nc2c(s1)CS(=O)(=O)c1ccccc1-2 [BL-1075],> 128 µM,complete loss of biological activity,–
C#CCNC(=O)Nc1nc2c(s1)CSc1ccccc1-2 [BL-1084],23.2 µM,–,–
CC1(C)Sc2ccccc2-c2nc(N)sc21 [BL-1124],51.7 µM,–,–
Nc1nc2c(s1)Cc1ccccc1-2 [BL-1125],49.5 µM,–,–
O=C(Nc1ccccc1)Nc1nc2c(s1)CSc1ccccc1-2 [BL-1131],32 µM,–,–
Cc1ccc(CNc2nc3c(s2)CSc2ccccc2-3)s1 [BL-1132],7.73 µM,widely tolerated,–
c1ccc(CNc2nc3c(s2)CSc2ccccc2-3)cc1 [BL-1133],7.6 µM,widely tolerated,–
C#CCCC1(CCNC(=O)Nc2nc3c(s2)CSc2ccccc2-3)N=N1 [BL-1138],–,–,fluorescence tagging of MSUT2 protein ([3]; PAL probe clicked with TAMRA-biotin-azide): target engagement

# Further lines, with some results ahead:
IC50 [1],biological activity in the in vitro assay (SAR summary in words) [1],SMILES,further results
8.17 µM,–,Nc1nc2c(s1)CSc1ccccc1-2 [BL-0957],–
22.3 µM,–,Nc1nc2c(s1)CSc1cc(F)ccc1-2 [BL-0981],–
16.9 µM,–,Fc1ccc(CNc2nc3c(s2)CSc2ccccc2-3)cc1 [BL-1023],–
20.8 µM,–,Fc1ccc(CNc2nc3c(s2)COc2ccccc2-3)cc1 [BL-1038],–
5.67 µM,–,CCN(CC)c1ccc(CNc2nc3c(s2)CSc2ccccc2-3)cc1 [BL-1041],–
20.2 µM,–,CC(C)Cc1ccc(CNc2nc3c(s2)CSc2ccccc2-3)cc1 [BL-1043],–
11 µM,–,Nc1nc2c(s1)CSc1ncccc1-2 [BL-1047],–
21.8 µM,–,Fc1ccc(CNc2nc3c(s2)CCc2ccccc2-3)cc1 [BL-1051],–
12.3 µM,–,COC(=O)CC[C@H](NC(=O)OC(C)(C)C)C(=O)Nc1nc2c(s1)CSc1ccccc1-2 [BL-1081],–
12.2 µM,favorable activity,C#CCCNC(=O)Nc1nc2c(s1)CSc1ccccc1-2 [BL-1085],–
14.3 µM,favorable activity,C#CCOC(=O)Nc1nc2c(s1)CSc1ccccc1-2 [BL-1088],–
11.7 µM,–,C#Cc1ccc(CNc2nc3c(s2)CSc2ccccc2-3)cc1 [BL-1092],–
3.26 µM,favorable activity,O=C(NCCS(=O)(=O)O)Nc1nc2c(s1)CSc1ccccc1-2 [BL-1122],binding affinity of ligand for MSUT2 protein [2]: tight binding affinity; ligand-protein binding mode (decrease in tagging density with competitor) [3]: competitive
16 µM,–,CC(=O)N1N=C(c2ccccc2)SC12CCSc1ccccc12 (stereo not drawn) [BL-1123],–
13.4 µM,–,CCS(=O)(=O)c1ccc(CNc2nc3c(s2)CSc2ccccc2-3)cc1 [BL-1126],–
0.586 µM,–,C=C(Cc1nc2c(s1)CSc1ccccc1-2)c1ccc(S(=O)(=O)CC)cc1 [UWK-5],IC50 [4]: 1100 nM; ligand-protein binding mode (decrease in tagging density with competitor) [3]: competitive
